Blank lines part the entries; values can stand above or below the molecule they belong to.
Experiments:
[1] = Antiproliferative activity against mouse MC3T3-E1 cells; type: toxicity, cell-based
[2] = tested on: A549; assay: Antiproliferative activity against human A549 cells; type: functional, cell-based
[3] = tested on: MCF7; assay: Antiproliferative activity against human MCF7 cells assessed as inhibition of cell growth; type: functional, cell-based
[4] = tested on: A549; assay: Antiproliferative activity against human A549 cells assessed as inhibition of cell growth; type: functional, cell-based
[5] = tested on: HeLa; assay: Antiproliferative activity against human HeLa cells assessed as inhibition of cell growth; type: functional, cell-based
[6] = tested on: HT-29; assay: Antiproliferative activity against human HT-29 cells; type: functional, cell-based
[7] = tested on: PANC-1; assay: Antiproliferative activity against human PANC-1 cells; type: functional, cell-based
[8] = tested on: MDA-MB-231; assay: Antiproliferative activity against human MDA-MB-231 cells; type: functional, cell-based
[9] = Cytotoxicity activity against human HDF cells; type: toxicity, cell-based; conditions: HDF cells (NHDF)
[10] = tested on: A549; assay: Antiproliferative activity against human A549 cells measured after 48 hrs by MTT assay; type: functional, cell-based; conditions: A549, 48 h
[11] = tested on: HCT-116; assay: Antiproliferative activity against human HCT-116 cells measured after 48 hrs by MTT assay; type: functional, cell-based; conditions: HCT-116, 48 h
[12] = tested on: MDA-MB-231; assay: Antiproliferative activity against human MDA-MB-231 cells measured after 48 hrs by MTT assay; type: functional, cell-based; conditions: MDA-MB-231, 48 h
[13] = tested on: A549; assay: Antiproliferative activity against human A549 cells measured after 48 hrs; type: functional, cell-based; conditions: A549, 48 h
[14] = tested on: HCT-116; assay: Antiproliferative activity against human HCT-116 cells measured after 48 hrs; type: functional, cell-based; conditions: HCT-116, 48 h
[15] = tested on: MDA-MB-231; assay: Antiproliferative activity against human MDA-MB-231 cells measured after 48 hrs; type: functional, cell-based; conditions: MDA-MB-231, 48 h

SMILES: O=c1c2ccccc2nc2n1-c1ccccc1/C2=N/N=c1/scc(-c2ccc(O)cc2)n1-c1ccccc1
IC50 [3]: 58.5 µM | IC50 [4]: 38.3 µM | IC50 [5]: 55.1 µM

SMILES: O=C1C2C=CC=CC2=NC2/C(=N\Nc3nc(-c4ccccc4)cs3)c3ccccc3N12 (stereo unspecified)
IC50 [3]: 40.5 µM | IC50 [4]: 52 µM | IC50 [5]: 46 µM

SMILES: Cc1nn(Br)c2c1[C@@]1(C(C#N)=C(N)O2)c2ccccc2-n2c1nc1ccccc1c2=O
IC50 [6]: 79.7 µM | IC50 [7]: 48.2 µM | IC50 [8]: 52.4 µM | IC50 [9]: > 100 µM

SMILES: O=C1C2C=CC=CC2=NC2/C(=N\Nc3nc(-c4ccc([N+](=O)[O-])cc4)cs3)c3ccccc3N12 (stereo unspecified)
IC50 [3]: 59.1 µM | IC50 [4]: 49.1 µM | IC50 [5]: 67 µM

SMILES: O=C1c2c(ccc(F)c2Cl)-n2c1nc1ccc(F)c(Cl)c1c2=O
IC50 [1]: 68.3 µM | IC50 [2]: 0.51 µM

SMILES: O=c1c2ccccc2nc2n1-c1ccccc1/C2=N/N=c1/scc(-c2ccccc2)n1-c1ccccc1
IC50 [3]: 50.2 µM | IC50 [4]: 51.6 µM | IC50 [5]: 56.6 µM

SMILES: O=c1c2ccccc2nc2n1-c1ccccc1/C2=N/N=c1/scc(-c2ccc(F)cc2)n1-c1ccccc1
IC50 [3]: 60.1 µM | IC50 [4]: 44.4 µM | IC50 [5]: 52 µM

SMILES: O=C1c2c(ccc(Cl)c2Cl)-n2c1nc1ccc(F)c(Cl)c1c2=O
IC50 [1]: 67.2 µM | IC50 [2]: > 100 µM

SMILES: O=C1c2cc(Cl)ccc2-n2c1nc1ccc(Cl)c(Cl)c1c2=O
IC50 [1]: > 100 µM | IC50 [2]: > 100 µM

SMILES: O=C1c2c(ccc(F)c2N2CCNCC2)-n2c1nc1ccccc1c2=O
IC50 [10]: > 100 µM | IC50 [11]: > 100 µM | IC50 [12]: 65.8 µM

SMILES: Cc1n[nH]c2c1[C@@]1(C(C#N)=C(N)O2)c2cc(-c3ccccc3)ccc2-n2c1nc1ccccc1c2=O
IC50 [6]: 97.9 µM | IC50 [7]: > 100 µM | IC50 [8]: 72.2 µM | IC50 [9]: > 100 µM

SMILES: O=C1c2cc(F)ccc2-n2c1nc1ccc(F)c(Cl)c1c2=O
IC50 [1]: 89.7 µM | IC50 [2]: > 100 µM

SMILES: O=C1c2c(ccc(Cl)c2N2CCNCC2)-n2c1nc1ccccc1c2=O
IC50 [10]: 34.5 µM | IC50 [11]: > 100 µM | IC50 [12]: 31.6 µM

SMILES: O=c1c2ccccc2nc2n1-c1ccccc1/C2=N/N=c1/scc(-c2ccc([N+](=O)[O-])cc2)n1-c1ccccc1
IC50 [3]: 43.1 µM | IC50 [4]: 52.8 µM | IC50 [5]: 67 µM

SMILES: O=C1c2cc(Cl)ccc2-n2c1nc1ccc(F)c(Cl)c1c2=O
IC50 [1]: > 100 µM | IC50 [2]: > 100 µM

SMILES: O=C1c2c(N3CCNCC3)cccc2-n2c1nc1ccccc1c2=O
IC50 [10]: > 100 µM | IC50 [11]: > 100 µM | IC50 [12]: > 100 µM | IC50 [13]: 13.7 µM | IC50 [14]: 90 µM | IC50 [15]: 56.1 µM

SMILES: CC[C@@]1(O)C(=O)OCc2c1cc1n(c2=O)Cc2cc3ccccc3nc2-1 [CAMPTOTHECIN]
IC50 [2]: 0.39 µM

Second part, led by results:

IC50 [2]: > 100 µM
SMILES: O=C1c2cc(F)ccc2-n2c1nc1cc(Cl)ccc1c2=O
IC50 [1]: > 100 µM

IC50 [10]: > 100 µM | IC50 [11]: > 100 µM | IC50 [12]: > 100 µM
SMILES: Cc1ccc2c(c1N1CCCCC1)C(=O)c1nc3ccccc3c(=O)n1-2

IC50 [10]: 41.4 µM | IC50 [11]: > 100 µM | IC50 [12]: > 100 µM | IC50 [13]: 41.4 µM | IC50 [14]: > 100 µM | IC50 [15]: > 100 µM
SMILES: O=C1c2c(ccc(F)c2N2CCN(CCO)CC2)-n2c1nc1ccccc1c2=O

IC50 [13]: 1.48 µM | IC50 [14]: 1.29 µM | IC50 [15]: 1.78 µM
SMILES: CCN(CC)c1cc2c(cc1Cl)C(=O)c1nc3ccccc3c(=O)n1-2

IC50 [2]: > 100 µM
SMILES: O=C1c2cc(Cl)ccc2-n2c1nc1cc(Cl)ccc1c2=O
IC50 [1]: > 100 µM

IC50 [10]: > 100 µM | IC50 [11]: > 100 µM | IC50 [12]: > 100 µM | IC50 [13]: > 100 µM | IC50 [14]: > 100 µM | IC50 [15]: > 100 µM
SMILES: O=C1c2c(ccc(F)c2N2CCOCC2)-n2c1nc1ccccc1c2=O

IC50 [10]: > 100 µM | IC50 [11]: 10.7 µM | IC50 [12]: > 100 µM
SMILES: O=C1c2c(ccc(Cl)c2N2CCOCC2)-n2c1nc1ccccc1c2=O

IC50 [10]: > 100 µM | IC50 [11]: > 100 µM | IC50 [12]: > 100 µM
SMILES: CN1CCN(c2c(F)ccc3c2C(=O)c2nc4ccccc4c(=O)n2-3)CC1

IC50 [10]: > 100 µM | IC50 [11]: > 100 µM | IC50 [12]: > 100 µM
SMILES: O=C1c2c(ccc(Cl)c2N2CCCCC2)-n2c1nc1ccccc1c2=O

IC50 [10]: 98 µM | IC50 [11]: > 100 µM | IC50 [12]: 87.3 µM
SMILES: Cc1ccc2c(c1N(C)C)C(=O)c1nc3ccccc3c(=O)n1-2

IC50 [10]: 52.6 µM | IC50 [11]: > 100 µM | IC50 [12]: > 100 µM
SMILES: Cc1ccc2c(c1N1CCN(C)CC1)C(=O)c1nc3ccccc3c(=O)n1-2

IC50 [10]: 1.48 µM | IC50 [11]: 1.29 µM | IC50 [12]: 1.78 µM
SMILES: CCN(CC)c1c(Cl)ccc2c1C(=O)c1nc3ccccc3c(=O)n1-2

IC50 [10]: > 100 µM | IC50 [11]: > 100 µM | IC50 [12]: > 100 µM | IC50 [13]: > 100 µM | IC50 [14]: > 100 µM | IC50 [15]: > 100 µM
SMILES: O=C1c2c(ccc(F)c2N2CCN(c3ccccn3)CC2)-n2c1nc1ccccc1c2=O

IC50 [10]: > 100 µM | IC50 [11]: 64.2 µM | IC50 [12]: > 100 µM | IC50 [13]: > 100 µM | IC50 [14]: 64.2 µM | IC50 [15]: > 100 µM
SMILES: O=C1c2c(ccc(F)c2N2CCCCC2)-n2c1nc1ccccc1c2=O

Reference: ChEMBL document CHEMBL5532682, “Recent advances of tryptanthrin and its derivatives as potential anticancer agents” (RSC Med Chem, 2024)
